Experimental data as given in patent publication US20260055065A1, “PYRIDAZINONE COMPOUNDS WHICH MODULATE MUTANT PROTEINS FOR TREATING RESPIRATORY DISEASES” (The Hospital for Sick Children, priority 2022, published 2026).

How the values were obtained:
Assay type in all cases: cell-based
[1] = biological target: T1, F508del-CFTR (Homo sapiens, UniProt P13569, DEL508-508); test: Dose response, potentiation of forskolin-activated F508del-CFTR chloride channel activity in CFBE41o- cells (fluorescence membrane potential assay); conditions: low temperature (27 degrees Celsius) correction, read-out: potency in potentiating cyclic AMP dependent F508del-CFTR chloride channel activity
T1 construct: F508del-CFTR was endogenously expressed in CFBE41o^− cells; endogenous in cells; host or cells: CFBE41o-
Method: In these studies, F508del-CFTR was endogenously expressed in CFBE41o^− cells and it's trafficking defect corrected by low temperature (27 degrees Celsius) incubation. The fold increase in cyclic AMP dependent F508del-CFTR mediated chloride channel activity induced by potentiator treatment was determined using the fluorescence-based, membrane potential difference assay previously described.

[2] = system: primary differentiated human bronchial epithelial cultures; test: Bead tracking assay of mucociliary movement, primary bronchial epithelial cultures exposed to cigarette smoke extract
Method: Compound 11 was tested in an in-vitro model of COPD. In this model, primary differentiated human bronchial epithelial cultures were exposed to cigarette smoke extract (4,5). Exposure to cigarette smoke extract (CSE) led to mucostasis and slowed mucociliary movement (FIG. 1(A) and (B)). […] Changes in mucociliary movement were determined as in our previous publication (7), i.e., by tracking the speed of fluorescent beads added to the surface of the airway cultures. The relative rescue effect of Compound 11 compared favourably relative to the competitor, the FDA approved CFTR potentiator marketed as Ivacaftor (VX-770).
Mature bronchial epithelial cultures, seeded on 24-well transwell inserts, derived from non-smoker donors of variable ages were received from the University of Iowa and cultured at air-liquid interface (ALI) using UltraG medium. A total of 6 inserts per donor were cultured, and all inserts from a single donor were selected to receive chronic drug and toxin treatment. Ahead of chronic treatment, cultures were subject to mucomist to reduce the volume and viscosity of the mucous layer ahead of imaging. Cultures were first washed twice with 200 uL HBSS (Wisent) applied apically to the transwell, each wash for 10 minutes at 37 degrees and 5% CO2. Cells were then incubated with 10 μM N-acetyl-cysteine (source?) dissolved in HBSS (Wisent) for 30 minutes, followed by a final HBSS wash as described previously. The toxin treatment consisted of either cigarette smoke extract (CSE) prepared in 100% DMSO (University of Alabama at Birmingham), dissolved at a concentration of 2% (v/v) in UltraG medium, with an equivalent concentration of DMSO alone serving as a control. The chronic drug treatment was co-applied with the toxin treatment, which included either VX-770 (Vertex) or SK-POT, aka Compound 11 (both prepared in 100% DMSO) dissolved in UltraG medium at a final concentration of 1 μm. There were a total of 6 chronic treatments, with each of the 6 inserts per donor receiving a different chronic treatment. Bronchial epithelia were incubated with the chronic treatment, applied apically, for 24 hours at 37 degrees C. and 5% CO2. After 24 hours, green fluorescent microspheres (brand?) dissolved in HBSS at a concentration of 0.05% (v/v) were applied apically; cultures were incubated with the microspheres for 45 minutes. The toxin and potentiator treatments were carried forth into the microsphere solution.
Inserts were then imaged at room temperature by epifluorescence microscopy (Zeiss or Olympus). The basic replicate of the assay consists of a 5-second video captured in the green channel and 40-60 frames per second; Z-position was adjusted ahead of each video to ensure beads in the airway surface liquid stratum immediately above the cilia were being captured. 5 videos were captured per insert/conditions, representing the centre and 4 corners of the insert. 2 sets of 5 videos were captured per insert/condition: one at baseline, and one 20 minutes following CFTR stimulation by forskolin at a concentration of 10 μM. Inserts were incubated at room temperature after forskolin addition.
Videos were captured using Volocity software and exported as one TIF file per frame. Frames were then re-compiled into complete videos using Arivis 4D software. Using an algorithm as previously described in Wu et al. 2017, microspheres were highlighted by adjusting two parameters: fluorescence intensity and diameter. […]

[3] = biological target: Wt-CFTR (Homo sapiens, UniProt P13569); test: Calu-3 CSE experiments, FLiPR assay of CFTR channel activity; set-up: this airway epithelial cell line endogenously expresses this channel; endogenous in cells; host or cells: Calu-3
Method: Addition of CFTR-inhibitor indicated with grey arrow. Superimposed, we show the effect of acute co-application of VX-770 (open squares) or SK-POT (open triangles) with forskolin. […] Only SK-POT rescued CFTR channel function in the presence of cigarette smoke extract.
Calu-3 cells were cultured using EMEM (Wisent) supplemented with FBS at 20% (v/v) and 1× Penicillin/Streptomycin (Wisent). Calu-3 cells were seeded on clear-bottom, black-walled 96 well plates (Costar, Corning) at a density of 10,000 cells/well and cultured for 2 days post-confluence. Cells then received the chronic treatment of toxin and potentiator. The toxin treatment consisted of either cigarette smoke extract (CSE) prepared in 100% DMSO (University of Alabama at Birmingham), dissolved at a concentration of 2% (v/v) in Calu-3 medium, with an equivalent concentration of DMSO alone serving as the toxin control. The chronic drug treatment was co-applied with the toxin, which included either VX-770 or Compound 11 (both prepared in 100% DMSO) dissolved in Calu-3 medium at a final concentration of 1 μm. VX-770 (Vertex) and Compound 11 solutions were prepared from 1 mM stocks. The control for the drug treatment was the vehicle, DMSO at an equivalent volume. Combining the two toxin treatments and three drug treatments, a total of six treatments were applied chronically to 4 wells per condition, for a total of 24 wells receiving chronic treatment.
Cells were cultured for an additional 24 hours after chronic treatment application, after which cells were incubated with FLiPR assay buffer. The FLiPR assay buffer consisted of blue FLiPR dye (Molecular Devices) dissolved at a concentration of 0.5 mg/mL in chloride-free buffer (150 mM NMDG, 150 mM gluconolactone, 3 mM potassium gluconate, 300 mOsm and pH 7.38). Buffer was incubated with cells at 37 degrees and 5% CO2 for 35 minutes. CFTR function was assessed by measuring changes in fluorescence activity after acute CFTR channel activation by addition of cAMP agonist forskolin dissolved in chloride-free buffer to a final concentration 1 μm, using the SpectraMax i3x multimodal plate reader. Fluorescence readings (excitation 530 nm; emission 560 nm) for each well were taken at 30-second intervals for 5 minutes (baseline) or 10 minutes (activation). CFTR activity was then terminated by addition of CFTR-inhibitor 172 dissolved in chloride-free buffer to a concentration of 10 μm, to further verify the specificity of the response to CFTR activity. Fluorescence changes were recorded at 30-second intervals for another 10 minutes. In analysis, all fluorescence values were normalized per well to the final reading prior to the addition of forskolin and expressed as a percentage of this reading.

[4] = biological target: T2, wild-type human CFTR (Homo sapiens, UniProt P13569); test: Cell-attached patch clamp of CFTR channel potentiation in HEK-293 cells; conditions: one active channel with forskolin alone
T2 construct: host or cells: HEK-293
T2 sequence (P13569 whole entry): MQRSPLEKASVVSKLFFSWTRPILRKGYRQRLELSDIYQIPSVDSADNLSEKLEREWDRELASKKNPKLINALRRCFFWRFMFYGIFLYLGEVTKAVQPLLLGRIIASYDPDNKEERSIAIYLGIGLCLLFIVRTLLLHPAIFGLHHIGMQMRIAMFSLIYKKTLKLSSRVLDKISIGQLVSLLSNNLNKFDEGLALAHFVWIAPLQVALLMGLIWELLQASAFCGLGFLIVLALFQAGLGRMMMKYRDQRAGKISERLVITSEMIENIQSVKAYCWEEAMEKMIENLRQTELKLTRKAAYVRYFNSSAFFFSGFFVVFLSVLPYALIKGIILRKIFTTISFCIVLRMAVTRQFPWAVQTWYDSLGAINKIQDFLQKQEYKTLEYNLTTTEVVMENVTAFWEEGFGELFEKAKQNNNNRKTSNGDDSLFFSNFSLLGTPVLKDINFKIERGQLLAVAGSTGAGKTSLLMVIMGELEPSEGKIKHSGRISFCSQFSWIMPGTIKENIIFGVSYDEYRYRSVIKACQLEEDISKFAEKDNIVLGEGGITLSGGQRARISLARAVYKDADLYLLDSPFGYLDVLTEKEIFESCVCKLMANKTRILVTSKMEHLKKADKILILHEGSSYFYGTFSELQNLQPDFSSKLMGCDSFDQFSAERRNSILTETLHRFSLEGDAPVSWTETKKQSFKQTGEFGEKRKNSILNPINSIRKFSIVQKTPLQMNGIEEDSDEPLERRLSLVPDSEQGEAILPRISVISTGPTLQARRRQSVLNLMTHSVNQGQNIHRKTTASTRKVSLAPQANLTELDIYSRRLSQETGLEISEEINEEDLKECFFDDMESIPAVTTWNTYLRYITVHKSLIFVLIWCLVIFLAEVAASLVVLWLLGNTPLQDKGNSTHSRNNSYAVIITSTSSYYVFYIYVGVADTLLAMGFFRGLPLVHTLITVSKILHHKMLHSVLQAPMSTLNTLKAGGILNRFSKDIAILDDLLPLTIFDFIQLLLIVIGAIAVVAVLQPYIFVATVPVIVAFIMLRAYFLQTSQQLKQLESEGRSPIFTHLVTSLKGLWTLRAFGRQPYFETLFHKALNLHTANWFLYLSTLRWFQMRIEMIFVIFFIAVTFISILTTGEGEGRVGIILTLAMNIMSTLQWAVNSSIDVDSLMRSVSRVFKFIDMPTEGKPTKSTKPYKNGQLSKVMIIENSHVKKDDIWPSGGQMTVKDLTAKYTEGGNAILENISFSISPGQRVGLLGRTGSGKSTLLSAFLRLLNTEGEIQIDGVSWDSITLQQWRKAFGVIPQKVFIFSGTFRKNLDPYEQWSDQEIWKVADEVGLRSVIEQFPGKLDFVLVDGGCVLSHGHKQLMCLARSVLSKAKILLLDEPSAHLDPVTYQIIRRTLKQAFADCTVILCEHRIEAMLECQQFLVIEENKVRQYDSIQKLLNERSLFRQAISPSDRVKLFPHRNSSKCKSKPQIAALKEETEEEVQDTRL
Method: HEK-293 cells stably expressing wild-type human CFTR in patch clamp studies of single channel activity were used. […] CFTR Cl^− channels were recorded in cell-attached membrane patches using an Axopatch 200A patch clamp amplifier and pCLAMP software (both from Molecular Devices, Sunnyvale, CA). The pipette and bath (extracellular) solutions contained 140 mm N-methyl-d-glucamine, 140 mm aspartic acid, 5 mm CaCl2, 2 mm MgSO4, and 10 mm TES, adjusted to pH 7.3 with Tris ([Cl^−]: 10 mM). The bath was maintained at room temperature.
In order to activate Wt-CFTR channels, 10 uM forskolin was added to the bath. […] To determine channel number, we used the maximum number of simultaneous channel openings observed during the experimental procedure. Single channel recordings were filtered and digitized data as described previously. To measure single-channel current amplitude, Gaussian distributions were fitted to current amplitude histograms. To measure Po, lists of open and closed times were created using a half-amplitude crossing criterion for event detection, and dwell time histograms were constructed and fitted. For the purpose of illustration, single-channel records were filtered at 500 Hz.

Chain of Wt-CFTR (P13569 whole entry): as above
T1 sequence (P13569 with tags, fused parts or gaps DEL508-508): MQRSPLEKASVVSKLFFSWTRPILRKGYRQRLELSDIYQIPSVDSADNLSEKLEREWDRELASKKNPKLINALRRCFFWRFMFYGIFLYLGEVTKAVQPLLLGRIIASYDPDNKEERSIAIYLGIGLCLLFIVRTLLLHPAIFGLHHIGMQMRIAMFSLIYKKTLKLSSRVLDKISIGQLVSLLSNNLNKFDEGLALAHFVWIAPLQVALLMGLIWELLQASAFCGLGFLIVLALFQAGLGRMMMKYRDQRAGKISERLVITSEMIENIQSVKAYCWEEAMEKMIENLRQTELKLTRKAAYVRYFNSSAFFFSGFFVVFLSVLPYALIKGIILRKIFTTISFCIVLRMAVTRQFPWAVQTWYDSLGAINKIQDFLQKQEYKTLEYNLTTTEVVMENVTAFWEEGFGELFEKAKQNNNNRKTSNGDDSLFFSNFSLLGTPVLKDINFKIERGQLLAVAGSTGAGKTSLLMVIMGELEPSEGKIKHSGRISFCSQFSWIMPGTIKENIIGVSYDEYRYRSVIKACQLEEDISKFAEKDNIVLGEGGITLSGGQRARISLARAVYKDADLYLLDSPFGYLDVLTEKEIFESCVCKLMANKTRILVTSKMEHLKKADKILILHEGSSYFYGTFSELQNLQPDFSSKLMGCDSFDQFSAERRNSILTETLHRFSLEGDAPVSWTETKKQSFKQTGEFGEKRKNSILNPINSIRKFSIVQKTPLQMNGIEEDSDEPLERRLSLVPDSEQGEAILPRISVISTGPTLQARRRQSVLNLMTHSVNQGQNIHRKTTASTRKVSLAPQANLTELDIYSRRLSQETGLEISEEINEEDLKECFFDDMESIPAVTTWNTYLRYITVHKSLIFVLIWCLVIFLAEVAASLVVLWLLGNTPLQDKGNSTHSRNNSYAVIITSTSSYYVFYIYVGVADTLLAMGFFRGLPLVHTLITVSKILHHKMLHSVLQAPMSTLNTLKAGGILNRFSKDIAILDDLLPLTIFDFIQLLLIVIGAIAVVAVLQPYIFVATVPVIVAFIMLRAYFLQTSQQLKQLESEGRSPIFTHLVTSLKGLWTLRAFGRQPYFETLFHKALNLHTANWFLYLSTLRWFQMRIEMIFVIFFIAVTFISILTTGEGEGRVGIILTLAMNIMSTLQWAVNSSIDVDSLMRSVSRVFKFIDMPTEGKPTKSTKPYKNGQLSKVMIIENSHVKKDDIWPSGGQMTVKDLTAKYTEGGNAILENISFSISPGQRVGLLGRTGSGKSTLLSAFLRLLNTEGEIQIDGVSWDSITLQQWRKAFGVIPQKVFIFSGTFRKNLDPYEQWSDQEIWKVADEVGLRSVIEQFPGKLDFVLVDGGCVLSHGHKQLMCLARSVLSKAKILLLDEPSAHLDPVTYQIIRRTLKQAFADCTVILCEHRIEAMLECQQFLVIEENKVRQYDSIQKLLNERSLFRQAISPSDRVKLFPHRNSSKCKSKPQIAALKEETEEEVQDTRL

Row | Compound | EC50 [1] [µM] | mucostasis / bead velocity in CSE-treated cultures ([2]; CSE 2%, compound 1 μM for 24 hours, forskolin 10 μM) | bead velocity under control conditions ([2]; no CSE, compound added with vehicle for 24 hours) | forskolin-activated CFTR channel activity after CSE exposure ([3]; Calu-3, CSE 2%, compounds 1 uM) | EC90 ([3]; Calu-3, CFTR channel potentiation, read-out: approximate EC90) [µM] | number of active channels [4]
1 | CC(C)(C)c1cc(C(C)(C)C)c(NC(=O)c2c[nH]c3ccccc3c2=O)cc1O [VX-770, reference compound] | 0.032 | a significant increase in the forskolin induced response in CSE-treated cultures after VX-770 addition was not observed | Neither VX-770 nor Compound 11 had any impact on bead velocity | only (SK-POT) treatment led to a significant increase | ~1 | 
2 | CFTRinh-172 |  |  |  |  |  | significant decrease in the number of active channels
